Data set [1] has as its system p53. Kind of data set: p53 acetylation Western blot in U2OS cells. The following applies: 6 hours. Type of data set: cell-based, human. On the procedure:
U2OS cells were treated with piperlongumine (SP), the HDAC inhibitor TSA (trichostatin A ([…])) or the control DMSO for 6 hours. Cell extracts were fractionated in SDS-PAGE gel and analyzed by western blot.
In general terms: A western blot detects proteins with antibodies after separation by electrophoresis.

Data set [2] concerns p53. Kind of data set: Western blot of p53 and p53 target expression in human cancer cells. Type of data set: cell-based. An excerpt:
Thus, piperlongumine is a p53 activator as well as an activator for proapoptotic targets.

A further data set has as its system Twist and N-cadherin. The data set is described as follows: Histological examination of Twist and N-cadherin in MMTV-PyVT mammary tumors. Particulars: i.p. total 2.4 mg/kg daily for two weeks. Type of data set: in vivo, mouse. Here is the method: A scheme for piperlongumine (SP2007)-mediated repression of Twist expression and its downstream targets that are involved in tumor invasion/metastasis is presented in FIG. 39A. […] U2OS and EJ cells were treated with SP2007 at two concentrations (10 μM and 20 μM) as well as with DMSO as a solvent control. After 20 hours, cell lysates were extracted and western blotting was performed against Twist, N-cadherin and p120 catenin (Zymed and Sigma Aldrich). […] Female MMTV-PyVT mice at 8-9 weeks age were chosen for the studies. When tumor sizes grew to ˜5-6 mm in diameter, SP2007 or DMSO was administered intraperitoneally (I.P., total 2.4 mg/kg of SP2007) daily for two weeks. After two weeks treatment, mice were sacrificed and mammary tumors excised and processed for histological examination.

Another data set relates to miRNA-10b. The data set is described as follows: miRNA microarray analysis in U2OS and EJ cells. Type of data set: cell-based, human. Details: dose or concentration left out as unconfirmed. The following applies: 0, 6 and 24 hrs. On the procedure:
U2OS cells and EJ cells were treated with piperlongumine ([…]) and total RNA was extracted after 0, 6 and 24 hrs using miRNeasy Mini Kit (Qiagen, Germantown, Md.) according to the manufacturer's instructions. The miRNA microarray analysis was done by LC Sciences (Houston, Tex.). Total RNA (10 μg) was size fractionated (<200 nucleotides) by using a mirVana kit (Ambion, Austin, Tex.) and labeled with Cy3 or Cy5 fluorescent dyes. Dye switching was done to eliminate the dye bias. Pairs of labeled samples were hybridized to dual-channel microarrays. Microarray assays were done on a μParaFlo microfluidics chip with each of the detection probes containing a nucleotide sequence of coding segment complementary to a specific miRNA sequence and a long non-nucleotide molecule spacer that extended the detection probe away from the substrate. miRNA detection signal threshold was defined as twice the maximum background signal. The maximum signal level of background probes was 180. Normalization was done using a cyclic LOWESS (locally weighted regression) method to remove the system-related variations. Data adjustments included data filtering, log2 transformation, and gene centering and normalization (Analysis performed at LCScience). The t-test analysis was conducted between treated and non-treated and U2OS and EJ samples, and miRNA with P values<0.05 were selected for cluster analysis. […]

The next data set relates to CDIP. The data set is described as follows: CDIP expression in HCT116 cells. The following applies: 5 μM and 10 μM. Type of data set: cell-based, human. Here is the method:
U2OS cells and EJ cells were exposed to piperlongumine (10 μM) and aliquots of the cells were taken at 6 and 12 hours and lysed to determine the level of Twist expression. […] HCT116 cells (p53-wt cells) were exposed to piperlongumine and aliquots of the cells were taken at 6 and 12 hours and lysed to determine the level of CDIP expression. […] U2OS cells (p53-wt cells) and EJ cells (non-functional p53) were exposed to various concentrations of piperlongumine (piper) and aliquots of the cells were lysed to determine the level of survival protein expression.

A short description of data set [3]: Precipitation on dilution of DMSO solution. Type of data set: physicochemical. Particulars: diluted 1:10 in phosphate buffered saline or water. Here is the method: To avoid toxicity, piperlongumine should be used at less than 2.5 mg/kg in mice. The skilled person will know how to formulate the compounds of the invention in accordance with the solubility by selection of appropriate carriers, solubilizers, etc.

For data set [4], the system named is p120ctn/vimentin/N-cadherin complex. Kind of data set: Vimentin immunoprecipitation / p120ctn Western blot in EJ cells. Type of data set: cell-based, human. Particulars: 10 μM. On the procedure:
It is well-established that Twist plays a major role in tumor development and metastasis. Thus, we investigated whether piperlongumine (SP2007) mechanistically regulates a key signaling pathway involving a complex of p120ctn/vimentin/N-cadherin which is a Twist target that promotes tumor cell migration and invasion/metastasis. EJ cells were treated with 10 μM piperlongumine or vehicle for 20 hours and cell lysates were subsequently immunoprecipitated by Vimentin antibody (Sigma Aldrich, St. Louis, Mo.) followed by western blot against p120ctn to analyze the association of the p120ctn/vimentin/N-cadherin complex.
EJ cells were treated with piperlongumine (SP2007) (10 μM) for 12 hours. Subsequently the cells were harvested and subjected to immunoprecipitations using vimentin antibodies (Sigma Aldrich) to precipitate the vimentin complex. Western blots were performed for p120 CTN and vimentin. DMSO (D) treated cells were used as control IP experiments.

Data set [5] relates to EJ bladder carcinoma cells and HCT116 colon carcinoma cells. The data set is described as follows: Cell death in transformed cancer cells. Particulars: 2.5 μM and 10 μM. Type of data set: cell-based, human.

With `COc1cc(/C=C/C(=O)N2CCC=CC2=O)cc(OC)c1OC` [piperlongumine, N-(3,4,5,-trimethoxycinnamoyl)-Δ^3-piperidine-2-one], the “amount of acetylated p53” value in the data set on p53 [1] is recorded as “increased the amount of acetylated p53 to a level similar to TSA treated cells”. Besides, the “total amount of p53” value in the data set on p53 [1] (TSA 10 mM) is listed as “did result in an increased”. For the same compound, in the data set with p53 [2] (human cancer cells), the Puma expression result is on record as “significantly induced”. Moreover, the “p53 expression (Western blot)” value with p53 [2] (relatively low concentrations, U2OS and HCT116 human cancer cells) is reported as “significantly induced”. Also, in the data set with Twist and N-cadherin, the “N-cadherin expression in mammary tumors” value is reported as “inhibits N-cadherin expression” and the “Twist expression in mammary tumors” value is “inhibits Twist expression”. For the same compound, in the data set on miRNA-10b, the miRNA-10b entry is “changes the induction of miRNA-10b”. Besides, the CDIP expression result with CDIP is “induces the expression of CDIP”. Besides, the “concentration in DMSO that precipitated out when diluted 1:10” value in data set [3] was “more than 0.25 mg/ml”. For the same compound, in data set [4] (12 hours), the “p120 in the complex precipitated with vimentin” value was “p120 was not in the complex”. The “association of the p120ctn/vimentin/N-cadherin complex” value in data set [4] (20 hours) is given as “dissociation”. In addition, the “cell death in transformed cancer cells” value in data set [5] is listed as “induced cell death”.

Source of the values: US20090312373A1, “METHODS FOR THE TREATMENT OF CANCER USING PIPERLONGUMINE AND PIPERLONGUMINE ANALOGS” (The General Hospital Corporation, priority 2008, published 2009).
